Assay results: paper PMC9728921, “Characterization of a KDM5 small molecule inhibitor with antiviral activity against hepatitis B virus” (PLOS ONE, 2022)

Experiments:
[1] = tested on: H3K4 methylation; experiment: Histone mass spectrometry of H3K4 methylation in PHH; format: cell-based, human; conditions: uninfected PHH; 10 μM every 3 days; Day 7
Procedure: Approximately 25 million PHH from Donor (Bioreclamation) were plated on collagen coated (Coating Matrix kit, Life Technologies, Cat. #R-011-K) plates (coated for 30 minutes at 37°C and subsequently washed twice with PHH plating medium). The PHH plating medium was removed after 16 hours and replaced with PHH maintenance medium (Day 0). […] Modifications to the manufacturer’s protocol included two PBS washes prior to adding the histone extraction buffer to the cells, precipitation of eluted histones in 8% perchloric acid, and a single wash in cold acetone containing 0.2% HCl.
Fresh 1:100 propionic anhydride:water reagent was prepared and 1 μl of mixture was added immediately to the histone sample with vortexing and incubated for 5 minutes at 25°C. The reaction was quenched with 1 μl of 80 mM hydroxylamine for 20 minutes at 25°C. […]
1 μl of sample was injected using a Thermo Fischer Scientific Ultimate 3000 Autosampler (San Jose, CA) onto a 15 cm x 75 μm Thermo Fischer Scientific ES812 Easyspray nano column with 5 μm particle size. […] Each sample was analyzed three times.
Data was searched using Thermo Fischer Scientific Proteome Discoverer V2.1 software. […] The ratio of drug treated/control was calculated for each sample and then corrected using the average protein level ratio to account for differences in total protein between control and treated samples.

[2] = molecular target: KDM1A (Homo sapiens, UniProt O60341); experiment: KDM1A enzymatic assay (AlphaLISA, NAD); format: biochemical
Procedure: The KDM1 assay was conducted in the presence of NAD but without Fe(II) or ascorbic acid. A 10 μL reaction mixture containing 50 mM Tris-HCl (pH 9.0), 50 mM NaCl, 0.01% Tween-20, 0.25 nM of enzyme, and 1 mM NAD was pre-incubated for 10 min. The reaction was started by addition of 5 μL of H3(1–21)K4 me1, and the reaction mixture was incubated for 60 min. The reaction was quenched with 10 μL AlphaLISA Acceptor beads (1:200) in Epigenetics Buffer and the reaction mixture was incubated for 60 min. The Donor beads were diluted 1:200 into Epigenetics Buffer in the dark, and 10 μL of this mixture was added to each well and incubated for another 60 min in the dark. The assay plates were read on an Enspire plate reader (PerkinElmer) using a standard AlphaLISA program.
Data was analyzed using GraphPad Prism 6.0 (La Jolla, CA). […] IC50 values were calculated as an average of at least two independent experiments.

[3] = molecular target: T1, HDAC-1 (Homo sapiens, UniProt Q13547); experiment: HDAC-1 histone deacetylase assay (FLUOR DE LYS); format: biochemical; conditions: enzyme conc. 5 nM
T1 construct: Full length; purchased BPS
T1 sequence (Q13547 whole entry): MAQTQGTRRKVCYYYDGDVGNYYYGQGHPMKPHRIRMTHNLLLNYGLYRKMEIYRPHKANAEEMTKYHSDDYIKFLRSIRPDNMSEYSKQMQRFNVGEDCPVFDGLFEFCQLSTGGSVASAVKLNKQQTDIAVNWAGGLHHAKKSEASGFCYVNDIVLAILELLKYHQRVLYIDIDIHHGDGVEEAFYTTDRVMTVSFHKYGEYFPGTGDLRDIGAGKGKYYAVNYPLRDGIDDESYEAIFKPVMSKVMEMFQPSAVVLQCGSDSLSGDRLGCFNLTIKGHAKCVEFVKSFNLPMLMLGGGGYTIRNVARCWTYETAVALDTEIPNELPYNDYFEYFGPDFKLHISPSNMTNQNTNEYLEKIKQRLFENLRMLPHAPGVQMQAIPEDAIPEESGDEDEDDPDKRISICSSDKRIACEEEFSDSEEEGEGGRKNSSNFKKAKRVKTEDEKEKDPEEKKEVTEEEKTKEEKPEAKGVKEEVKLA

Row | Fold Selectivity Compared to KDM5A ([2]; IC50 of KDM1A over KDM5A) | IC50 ([2]; enzyme concentration 0.25 nM) [µM] | IC50 [3] [µM] | Compound | change in H3K4 methylation species by quantitative mass spectrometry [1]
1 | – | – | – | CCOC(=O)c1ccnc(CNCC(=O)N(CC)CCN(C)C)c1 [GS-5801] | predominantly caused an increase in trimethylated H3K4 (H3K4me3)
2 | > 278,000 fold | > 100 | > 100 | CCN(CCN(C)C)C(=O)CNCc1cc(C(=O)O)ccn1 [GS-080] | –
